Here are results for 16 compounds from patent publication US10471046B2, “Method for treating, preventing, or reducing the risk of skin infection” (Melinta Subsidiary Corp., priority 2014, dated 2019).

The structures appear in SMILES notation. In brackets after ≈: the same amount, converted by molar mass. Where a name gives a salt, the structure may show the parent alone.

Data set [1] is classed as physicochemical. The note with it: radezolid salt forms in HPLC grade water, ambient temperature.
Data set [2] can be described thus: Dynamic vapor sorption/desorption (DVS). The note with it: radezolid salts. The format is physicochemical. As for the experimental part: Dynamic vapor sorption/desorption (DVS) data were collected on a VTI SGA-100 Vapor Sorption Analyzer. Sorption and desorption data were collected over a range of 5% to 95% relative humidity (RH) at 10% RH intervals under a nitrogen purge. Samples were not dried prior to analysis. Equilibrium criteria used for analysis were less than 0.0100% weight change in 5 minutes, with a maximum equilibration time of 3 hours if the weight criterion was not met. Data were not corrected for the initial moisture content of the samples. Sodium chloride and polyvinylpyrrolidine (PVP) were used as calibration standards.

Data set [3] in a line: Solubility of salts in water by HPLC. The format is physicochemical. The note with it: for Solubility at Adjusted pH / Solubility at Native pH: radezolid salts in water by HPLC at 23° C.; for Solubility at Adjusted pH: pH adjusted to ~3.5; for Native pH: supernatant of saturated salt solution in water. On the procedure: In another set of experiments, solubility of various radezolid salts was determined by HPLC. Approximately 1 mL of saturated solution (with excess of solid in solution) of each salt was prepared in water. The mixture was further mixed overnight on a slurry wheel then centrifuged on a desktop centrifuge at maximum speed for ˜5 min. The supernatant was collected, and pH was measured. Solubility was determined at the native pH. Then the pH was adjusted to ˜3.5 with sodium hydroxide solution or an acid solution in which salt was generated. The supernatant was filtered through a 0.2 μm nylon syringe filter and diluted into 0.1% formic acid solution immediately after filtration for HPLC. All HPLC analyses were performed using an Agilent 1100 series liquid chromatograph equipped with a diode array detector, degasser, quaternary pump, and an autosampler. […] The column temperature was set to 30° C., and the detector wavelength was 270 nm with a bandwidth of 8 nm and a reference wavelength of 360 nm. The mobile phase A was 0.1% formic acid in water (HPLC grade), mobile phase B was 0.1% formic acid in methanol (HPLC grade). […] The injection volume was 5 μl.

Another data set deals with S. aureus. Nature of the data set: Minimum inhibitory concentrations (MICs) for S. aureus of exemplary compounds (Table 2). The format is cell-based. As to conditions: Staphylococcus aureus, minimum inhibitory concentrations for S. aureus; read-out: MICs. In outline:
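Growth of S. aureus in media with or without compound, by broth microdilution in microtiter trays following NCCLS M7-A5 guidelines. Values are MICs in μg/mL.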

For the compound `CC(=O)NC[C@H]1CN(c2ccc(-c3ccc(CNCc4cnn[nH]4)cc3)c(F)c2)C(=O)O1` [Succinate], the solubility in data set [1] is given as below 0.03 mg/mL.

For `CC(=O)NC[C@H]1CN(c2ccc(-c3ccc(CNCc4cnn[nH]4)cc3)c(F)c2)C(=O)O1` [Mesylate, Radezolid Mesylate Salt], in data set [2] (Mesylate Salt), the “DVS desorption: weight loss from 95 to 5% RH” value is reported as “Desorption: 0.835% weight loss”, the “DVS sorption: weight gain from 5 to 95% RH” value (shortened to “DVS sorption … to 95% RH”) is listed as 1.025% weight gain from 5 to and the “DVS sorption: weight loss upon equilibration at 5% RH” value was “Sorption: 0.114% weight loss”. Moreover, in data set [3] (Mesylate Salt), the “Solubility at Adjusted pH” value is 18.0 mg/mL, the “Solubility at Native pH” value worked out at 18.6 mg/mL and the “Native pH” value is on record as 4.1.

`CC(=O)NC[C@H]1CN(c2ccc(-c3ccc(CNCc4cnn[nH]4)cc3)c(F)c2)C(=O)O1` [Benzoate]: the solubility in data set [1] was below 0.03 mg/mL.

On to `CC(=O)NC[C@H]1CN(c2ccc(-c3ccc(CNCc4cnn[nH]4)cc3)c(F)c2)C(=O)O1` [Acetate], for which, in data set [1], the solubility is recorded as below 0.02 mg/mL.

On to `CC(=O)NC[C@H]1CN(c2ccc(-c3ccc(CNCc4cnn[nH]4)cc3)c(F)c2)C(=O)O1` [Ethane-1,2-disulfonate, Radezolid Ethanedisulfonate Salt], for which, in data set [2], the “DVS desorption: weight loss from 95 to 5% RH” value is given as “Desorption: 2.388% weight loss”, the “DVS sorption … to 95% RH” value is 2.355% weight gain from 5 to and the “DVS sorption: weight loss upon equilibration at 5% RH” value is “Sorption: 0.017% weight loss”. Further, in data set [3], the “Solubility at Native pH” value was above 133.2 mg/mL, the “Solubility at Adjusted pH” value is reported as above 116.9 mg/mL and the “Native pH” value is on record as 2.0.

As for `CC(=O)NC[C@H]1CN(c2ccc(-c3ccc(CNCc4cnn[nH]4)cc3)c(F)c2)C(=O)O1` [Phosphate], the solubility in data set [1] came to 1.1 mg/mL.

Regarding `CC(=O)NC[C@H]1CN(c2ccc(-c3ccc(CNCc4cnn[nH]4)cc3)c(F)c2)C(=O)O1` [Esylate, Radezolid Esylate Salt], in data set [2], the “DVS desorption: weight loss from 95 to 5% RH” value is “Desorption: 2.999% weight loss”, the “DVS sorption … to 95% RH” value came to 2.930% weight gain from 5 to and the “DVS sorption: weight loss upon equilibration at 5% RH” value was “Sorption: 0.22% weight loss”. In data set [3], the “Solubility at Native pH” value is 53.8 mg/mL, the “Solubility at Adjusted pH” value stood at 61.7 mg/mL and the “Native pH” value turned out to be 4.0.

Regarding `CC(=O)NC[C@H]1CN(c2ccc(-c3ccc(CNCc4cnn[nH]4)cc3)c(F)c2)C(=O)O1` [Sulfate, Radezolid Sulfate Salt], in data set [2] (Sulfate Salt), the “DVS desorption: weight loss from 95 to 5% RH” value was “Desorption: 11.504% weight loss”, the “DVS sorption … to 95% RH” value is listed as 11.527% weight gain from 5 to and the “DVS sorption: weight loss upon equilibration at 5% RH” value is listed as “Sorption: 0.654% weight loss”. In data set [3] (Sulfate Salt), the “Solubility at Adjusted pH” value is on record as 3.3 mg/mL, the “Solubility at Native pH” value was 4.0 mg/mL and the “Native pH” value was found to be 1.9.

Take `CC(=O)NC[C@H]1CN(c2ccc(-c3ccc(CNCc4cnn[nH]4)cc3)c(F)c2)C(=O)O1` [Lactate]: in data set [1], the solubility was below 0.02 mg/mL.

In the case of `CC(=O)NC[C@H]1CN(c2ccc(-c3ccc(CNCc4cnn[nH]4)cc3)c(F)c2)C(=O)O1` [Citrate], the solubility in data set [1] is on record as 2.6 mg/mL.

Turning to `CC(=O)NC[C@H]1CN(c2ccc(-c3ccc(CNCc4cnn[nH]4)cc3)c(F)c2)C(=O)O1` [Tartrate], the solubility in data set [1] was found to be 1.8 mg/mL.

In the case of `CC(=O)NC[C@H]1CN(c2ccc(-c3ccc(CNCc4cnn[nH]4)cc3)c(F)c2)C(=O)O1` [Salicylate], the solubility in data set [1] is given as below 0.03 mg/mL.

On to `CC(=O)NC[C@H]1CN(c2ccc(-c3ccc(CNCc4cnn[nH]4)cc3)c(F)c2)C(=O)O1` [Maleate], for which, in data set [1], the solubility worked out at 2.3 mg/mL.

With `CC(=O)NC[C@H]1CN(c2ccc(-c3ccc(CNCc4cnn[nH]4)cc3)c(F)c2)C(=O)O1` [Fumarate], the solubility in data set [1] is reported as 2.6 mg/mL.

Regarding `CC(=O)NC[C@H]1CN(c2ccc(-c3ccc(CNCc4cnn[nH]4)cc3)c(F)c2)C(=O)O1` [Tosylate, Radezolid Tosylate Salt], in data set [2] (Tosylate Salt), the “DVS desorption: weight loss from 95 to 5% RH” value is on record as “Desorption: 0.435% weight loss”, the “DVS sorption … to 95% RH” value was 0.435% weight gain from 5 to and the “DVS sorption: weight loss upon equilibration at 5% RH” value is given as “Sorption: 0.070% weight loss”. For the same compound, in data set [3] (Tosylate Salt), the “Solubility at Adjusted pH” value is on record as 0.4 mg/mL, the “Solubility at Native pH” value is listed as 0.9 mg/mL and the “Native pH” value worked out at 5.1.

As for `CC(=O)NC[C@H]1CN(c2ccc(-c3ccc(CCNCc4ccncc4)cc3)c(F)c2)C(=O)O1` [Compound 4149, N-[3-(2-Fluoro-4′-{2-[(pyridin-4-ylmethyl)-amino]-ethyl}-biphenyl-4-yl)-2-oxo-oxazolidin-5-(S)-ylmethyl]-acetamide], the MIC in the data set on S. aureus is 1 µg/mL (≈ 2.16 µM).

In general, solubility refers to the concentration that dissolves in the medium under given conditions. As usually defined, the Solubility is the concentration that dissolves in the medium under given conditions.
